These compounds were tested against Protein Tat (Human immunodeficiency virus type 1 group M subtype B (isolate HXB2)) (UniProt P04608) (assay: HIV-1 Tat–TAR interaction blockers – biochemical, fluorescence polarization, FAM-labeled TAR RNA, counter-screen for Vif-APOBEC3G degradation inhibitor project, dose response (AID 1117361)). Conditions: Tat-TAR RNA binding.
Protein Tat (Human immunodeficiency virus type 1 group M subtype B (isolate HXB2)), sequence (P04608 whole entry, looked up): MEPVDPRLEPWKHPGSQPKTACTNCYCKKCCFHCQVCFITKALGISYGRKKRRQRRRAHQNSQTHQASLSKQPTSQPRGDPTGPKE

Going from `Cc1cc(C)c(S(=O)(=O)N2CCCCC2)c(C)c1N(C)S(=O)(=O)c1ccc(Cl)cc1` to `O=C(CN1CCN(S(=O)(=O)c2ccc(Cl)cc2)CC1)Nc1ccc2c(c1)OCCO2`, the IC50 falls from 29 µM to 1.31 µM (22-fold). The second is the more potent here.

First: COc1cc(/C=C2/C(=O)c3cccc([N+](=O)[O-])c3C2=O)c(Br)cc1O
Second: NS(=O)(=O)c1ccc(N/N=C/c2ccc(O)c(O)c2O)c([N+](=O)[O-])c1
The IC50 of the first is 13-fold higher: 96.5 µM for the first, 7.44 µM for the second. The second is the more potent here.

Going from `O=c1oc(/C=C/c2ccco2)nc2sc3c(c12)CCC3` to `Cc1cc(-c2nc3c4c5c(sc4[nH]c(=O)n3n2)CCC5)c(C)o1`, the IC50 falls from 11.9 µM to 3.66 µM (3.3-fold). The second is the more potent here.

First: Cc1cccc(N/N=C/c2ccc(O)c(O)c2O)c1
Second: CC(N=Cc1cccc(O)c1O)c1ccccc1 (stereo not drawn)
The IC50 of the first is 5.2-fold higher: 36 µM for the first, 6.96 µM for the second. The second is the more potent here.

Going from `O=C(O)C1Nc2c(C(=O)N3CCOCC3)cccc2C2C=CCC12` (stereo not drawn) to `O=C(O)C1Nc2c(O)cc(Cl)c([N+](=O)[O-])c2C2C=CCC12` (stereo not drawn), the IC50 falls from 8.99 µM to 1.64 µM (5.5-fold). The second is the more potent here.

First: CCCCC1=CC2=CC(=O)C(C)(OC(=O)C3CCCC3)C(=O)C2=CO1 (stereo not drawn)
Second: CCCCC1=CC2=CC(=O)C(C)(OC(=O)c3cnc4ccccc4n3)C(=O)C2=CO1 (stereo not drawn)
The IC50 of the first is 7.3-fold higher: 53.6 µM for the first, 7.3 µM for the second. The second is the more potent here.

Compared with `CCCCCC#CCC#CCC#CCC#CCCCC(=O)O`, `O=C(O)CCCCC1CCSS1` (stereo not drawn) is 2.5-fold higher in IC50: 2.38 µM for the first, 5.89 µM for the second.

Going from `CCN1CCc2c(C#N)c(NCc3ccccc3)nc(N(CC)CC)c2C1` to `CCN(CC)c1ccc2oc(=O)c(C)nc2c1`, the IC50 falls from 59.4 µM to 20.2 µM (2.9-fold). The second is the more potent here.

`CCOC(=O)COc1nc(-c2ccco2)cc(-c2ccco2)c1C#N` and `CSc1nnc(-c2ccco2)c(-c2ccco2)n1` are within 1.5-fold of each other in IC50: 8.34 µM for the first, 6.07 µM for the second.

First: O=C(/C=C/c1ccco1)NC(=S)Nc1ccccc1N1CCOCC1
Second: O=C(Nc1ccccc1N1CCCC1)c1ccc(Br)o1
The IC50 of the first is 2.3-fold lower: 25.8 µM for the first, 59.6 µM for the second. The first is the more potent here.

First: COc1cc(CC(=O)OCC(=O)Nc2cccc([N+](=O)[O-])c2)cc(OC)c1OC
Second: Cc1ccc(S(=O)(=O)OCC(=O)Nc2ccc(C(=O)O)c(O)c2)cc1
The IC50 of the first is 2.8-fold lower: 26.6 µM for the first, 75.3 µM for the second. The first is the more potent here.

`COC(=O)c1ccc(COc2ccccc2/C=C(\C#N)C(=O)Nc2c(C)cc(C)cc2C)cc1` and `COC(=O)c1ccc(COc2ccc(/C=N/Nc3cccc(C(=O)O)c3)cc2)cc1` are within 1.5-fold of each other in IC50: 46.2 µM for the first, 62.4 µM for the second.

First: COC(=O)c1cnn2c(C(F)(F)F)cc(-c3ccco3)nc12
Second: O=C(Nc1cccc(C(F)(F)F)c1)c1ccc2nc(-c3ccco3)c(-c3ccco3)nc2c1
The IC50 of the first is 11-fold higher: 68.1 µM for the first, 6.07 µM for the second.

First: CC1S/C(=N/N=C/c2ccco2)NC1=O (stereo not drawn)
Second: CC(=C\c1ccco1)/C=C1/SC(=S)N(CC(=O)O)C1=O
The IC50 of the first is 8-fold higher: 70.3 µM for the first, 8.8 µM for the second. The second is the more potent here.

Going from `O=C(Cc1csc(N2CCOCC2)n1)N/N=C/c1ccc(O)c(O)c1O` to `O=C(CCN1CCN(c2ccccc2)CC1)N/N=C/c1ccc(O)c(O)c1O`, the IC50 falls from 16.7 µM to 4.87 µM (3.4-fold). The second is the more potent here.

Compared with `Cn1c(O)c(/C=N/NC(=O)c2ccncc2)c(=O)[nH]c1=S`, `O=C(N/N=C/C=C\c1ccco1)c1cccnc1` is 13-fold lower in IC50: 51.8 µM for the first, 3.91 µM for the second. The second is the more potent here.

Compared with `O=[N+]([O-])c1cc(Br)c(O)c(C=Nc2ccc(N3CCOCC3)cc2)c1`, `CCCCn1c(SCC(=O)NCc2ccco2)nc2ccc(N3CCOCC3)cc2c1=O` is 3.4-fold lower in IC50: 77.5 µM for the first, 22.8 µM for the second. The second is the more potent here.

Going from `CC1(OC(=O)CCc2ccccc2)C(=O)C=C2C=C(c3ccsc3)OC=C2C1=O` (stereo not drawn) to `Cc1cccn2c(=O)c3cc(C(=O)NCc4ccco4)c(=N)n(CCc4ccccc4)c3nc12`, the IC50 falls from 65.8 µM to 11.8 µM (5.6-fold).

Compared with `O=CN/C=C/c1cc(O)ccc1O`, `O=C(NN1C(=O)/C(=C/C=C/c2ccco2)SC1=S)c1ccccc1O` is 2.5-fold lower in IC50: 11 µM for the first, 4.46 µM for the second. The second is the more potent here.

Compared with `CC(=O)C1=C(C)NC(C)=C(C(C)=O)C1c1cccs1`, `CCOC(=O)c1sc2nc(CC(=O)OC)nc(NCc3ccco3)c2c1C` is 5.7-fold lower in IC50: 91.4 µM for the first, 16.1 µM for the second. The second is the more potent here.

`O=c1cc2c(=O)oc3cc(O)c(O)oc3c2c(O)c1O` and `Oc1cc2c(cc1O)C1c3ccc(O)c(O)c3OCC1(O)C2` (stereo not drawn) are within 1.5-fold of each other in IC50: 12.3 µM for the first, 11.7 µM for the second.

First: O=[N+]([O-])c1ccc(-c2ccc(/C=N/c3c(-c4ccco4)nc4ccccn34)o2)cc1
Second: c1coc(-c2nc(-c3ccco3)c(-c3ccco3)nc2-c2ccco2)c1
The IC50 of the first is 1.6-fold lower: 1.4 µM for the first, 2.19 µM for the second. The first is the more potent here.

`O=C(c1ccc2nc(-c3ccco3)c(-c3ccco3)nc2c1)N1CCC2(CC1)OCCO2` and `CC(=O)c1sc(C(=O)O)c(-c2ccco2)c1-c1ccco1` are within 1.5-fold of each other in IC50: 4.26 µM for the first, 4.86 µM for the second.

Going from `CCN1C(=O)/C(=C\c2ccc([N+](=O)[O-])s2)C(=O)NC1=S` to `Cc1ccc(N2C(=O)/C(=C/c3ccc(CN(CCC#N)S(C)(=O)=O)o3)C(=O)NC2=S)cc1`, the IC50 rises from 4.07 µM to 90 µM (22-fold). The first is the more potent here.

First: O=C1C=Cc2ccccc2C1=O
Second: Cc1c(N=C2C=C(Br)C(=O)C(Br)=C2)c(=O)n(-c2ccccc2)n1C
The IC50 of the first is 2.8-fold higher: 30.5 µM for the first, 11 µM for the second.

First: CC(=O)Nc1ccc(S(=O)(=O)Nc2nc3ccccc3nc2Nc2ccc(C(=O)O)c(O)c2)cc1
Second: Cc1ccc(NC(=O)CN(C)C(=O)c2cc(-c3ccco3)nc3ccccc23)cc1
The IC50 of the first is 2.1-fold lower: 32.2 µM for the first, 69.2 µM for the second. The first is the more potent here.

Going from `O=C(O)/C(=C/c1ccco1)NC(=O)c1ccccc1` to `COC(=O)Cn1c(CCC(=O)O)ccc1-c1ccccc1`, the IC50 rises from 15.3 µM to 42.3 µM (2.8-fold). The first is the more potent here.

Going from `O=C1CCC/C1=C/Nc1ccc2c(c1)OCO2` to `Cc1[nH]c2c(Cl)cccc2c(=O)c1CN1CCCC1`, the IC50 rises from 19.7 µM to 78.3 µM (4-fold).

`O=C(O)C1=NN(c2cc(Cl)c(S(=O)(=O)O)cc2Cl)C(=O)C1` and `CC(=O)NC1=NC(=O)/C(=C/c2cc(C)n(-c3cccc(C(=O)O)c3)c2C)S1` are within 1.5-fold of each other in IC50: 30.9 µM for the first, 29.7 µM for the second.

Going from `CCN(CC(=O)Nc1c(F)cccc1F)C(=O)CSC(=S)N1CCCC1` to `NC(=O)c1cc(N)ccc1N1CCCC1`, the IC50 falls from 75.6 µM to 2.17 µM (35-fold).

Compared with `CC(C)n1c(=NC(=O)c2ccco2)c(C#N)cc2c(=O)n3ccccc3cc21`, `CCc1c(C)sc(NC(=O)c2cc(-c3ccco3)on2)c1C#N` is 1.8-fold lower in IC50: 95.9 µM for the first, 52.4 µM for the second. The second is the more potent here.

First: CCOC(=O)C1CCCN(C(=O)c2ccc(CNc3c(N4CCC(C)CC4)c(=O)c3=O)cc2)C1 (stereo not drawn)
Second: CCOc1cc(N2CCOCC2)c(OCC)cc1NS(=O)(=O)c1ccc(Cl)s1
The IC50 of the first is 4.4-fold higher: 65.3 µM for the first, 14.9 µM for the second. The second is the more potent here.

Going from `Cc1cc(C)cc(Nc2ncc3c(n2)CC(c2ccco2)CC3=O)c1` (stereo not drawn) to `CCC1C/C(=C/c2ccco2)C(=O)/C(=C/c2ccco2)C1` (stereo not drawn), the IC50 falls from 42.7 µM to 12.6 µM (3.4-fold).

First: Cc1ccc(N2C(=O)/C(=C\c3ccco3)SC2=S)cc1
Second: Cc1ccc(/C=C2\SC(=S)N(c3cccnc3)C2=O)o1
The IC50 of the first is 6.6-fold higher: 36 µM for the first, 5.44 µM for the second.

`COc1ccc(-c2cc(C(=O)N/N=C/c3ccc(OC)c(COCC(F)(F)C(F)F)c3)c3ccccc3n2)c(OC)c1` and `CN(C)C(CNC(=O)c1cccnc1Sc1ccccc1)c1ccco1` (stereo not drawn) are within 1.5-fold of each other in IC50: 99.4 µM for the first, 68.7 µM for the second.

First: Cc1cc(C(=O)CCl)c(C)n1-c1c(C)n(C)n(-c2ccccc2)c1=O
Second: COC(=O)CSc1nnc(CNC(=O)Cc2ccccc2)n1C
The IC50 of the first is 14-fold higher: 20.3 µM for the first, 1.43 µM for the second. The second is the more potent here.

Compared with `COC(=O)CCCC(=O)Nc1c(F)c(F)c(F)c(F)c1F`, `C=C(C)C(=O)Nc1cccc(C2=NOC3(C2)C[C@@H](C(N)=O)N(C(=O)CCCCC)C3)c1` (stereo partly drawn) is 14-fold lower in IC50: 78.2 µM for the first, 5.76 µM for the second. The second is the more potent here.

First: Cc1cccc(N(C(=O)Cn2nnc3ccccc32)C(C(=O)NCc2ccco2)c2ccncc2)c1C (stereo not drawn)
Second: N=C1/C(=C\c2ccc(SCc3ccco3)o2)C(=O)N=C2SC=NN12
The IC50 of the first is 11-fold higher: 27.6 µM for the first, 2.49 µM for the second. The second is the more potent here.

Compared with `Oc1ccc(N=Cc2ccc(-c3cccs3)s2)cc1`, `Cc1ccc(C)n1-c1ccc(-c2nnc3n2CCCCC3)s1` is 6.3-fold higher in IC50: 8.64 µM for the first, 54.2 µM for the second.

Compared with `CC1=C(C#N)C(=O)N(C2CCS(=O)(=O)C2)C(=O)/C1=C\c1ccc(C)o1` (stereo not drawn), `CN(C)c1ccc(N2C(=O)CSC2=S)cc1` is 40-fold higher in IC50: 1.35 µM for the first, 54.6 µM for the second. The first is the more potent here.

Going from `CC(C)N1CCC2(CC1)C(C#N)=C(N)NC(S)=C2C#N` to `CSc1nc(NCCOCCO)c2sc3nc(-c4ccco4)c4c(c3c2n1)CCC4`, the IC50 falls from 47.6 µM to 9.42 µM (5.1-fold).

`O=C(O)/C=C/C(=O)Nc1cccnc1` was tested, and the IC50 was 2.02 µM.

— PubChem BioAssay AID1117361 (Southern Research Institute, 2015)
